≈ marks a conversion by molar mass, not a printed value. Where two headings read alike, the source gives them in different places.
Key:
Candida albicans = assay: Minimal Inhibitory Concentration (MIC) assay, broth microdilution per CLSI; type: cell-based; settings: Candida albicans, read-out: Minimum Inhibitory Concentrations against Yeast Isolates, Candida albicans;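 note: two read times 24 hr and 48 hr of incubation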
Description: (§1) The in vitro activities of the inventive compounds (compound(s) herein) against fungi and/or yeasts were determined with isolates Candida albicans, Candida glabrata and Candida parapsilosis. The comparator compounds included fluconazole, caspofungin and amphotericin B.
(§2) The compounds were supplied as a powder, and were dissolved in dimethylsulfoxide (DMSO) the day of assay. Stock solutions were prepared at 10 mg/mL and diluted to a starting stock concentration of 2.56 mg/mL. Amphotericin B was dissolved in DMSO to a stock concentration of 2.56 mg/mL. Fluconazole was dissolved in deionized water to a stock concentration of 2.56 mg/mL. Caspofungin was received as a stock solution of 3.2 mg/mL in DMSO and was diluted to a starting stock concentration of 2.56 mg/mL.
(§3) The test organisms and reference isolates were streaked for isolation on Sabouraud agar medium (yeasts) or potato dextrose agar (fungi). Colonies were picked by swab from the medium and resuspended in the appropriate broth containing cryoprotectant. The suspensions were aliquoted into cryogenic vials and maintained at −80° C.
(§4) Prior to testing, the yeast isolates were streaked from the frozen vials onto Sabouraud dextrose agar. The plates were incubated overnight at 35° C. The fungal isolate was grown on potato dextrose agar slants and was incubated for 7-10 days at room temperature.
(§5) Both yeast and fungal isolates were tested in RPMI medium buffered with 0.165 M MOPS (3-(N-morpholino)propanesulfonic acid). The pH of the medium was adjusted to 7.0 with 1 N NaOH. The medium was sterile filtered using a 0.2 um PES (polyethersulfone) filter and stored at 4° C. until used.
(§6) The MIC assay method followed the procedure described by the Clinical and Laboratory Standards Institute (CLSI; 1, 2, 3) and employed automated liquid handlers to conduct serial dilutions and liquid transfers. Automated liquid handlers included the Multidrop 384 (Labsystems, Helsinki, Finland), Biomek 2000 and Biomek FX (Beckman Coulter, Fullerton Calif.). The wells in columns 2-12 in standard 96-well microdilution plates (Costar 3795) were filled with 150 ul of 100% DMSO. These would become the ‘mother plates’ from which ‘daughter’ or test plates would be prepared. The compounds (300 uL at 40× the desired top concentration in the test plates) were dispensed into the appropriate well in Column 1 of the mother plates. The Biomek 2000 was used to make serial 1:1 dilutions through Column 11 in the “mother plate”. The wells of Column 12 contained no compounds and were the organism growth control wells.
(§7) The daughter plates were loaded with 185 uL per well of RPMI described above using the Multidrop 384. The daughter plates were prepared using the Biomek FX which transferred 5 μL of the compound solution from each well of a mother plate to the corresponding well of the daughter plate in a single step.
(§8) Standardized inoculum of each organism was prepared per CLSI methods. For yeast isolates, colonies were picked from the streak plate and a suspension was prepared in 0.85% saline. For the fungal isolate, 1 mL of 0.85% saline was dispensed onto the potato dextrose agar slant that had been inoculated 7-10 days previously. Using a swab, a suspension of the fungus was made. After a short time to allow the heavy particles to settle out, a small quantity of the supernatant was dispensed into 0.85% saline and the suspension adjusted to equal a 0.5 McFarland turbidity standard. Both yeast and fungal isolates were diluted 1:100 in RPMI and then transferred to compartments of sterile reservoirs divided by length (Beckman Coulter). The Biomek 2000 was used to inoculate the plates. Daughter plates were placed on the Biomek 2000 work surface reversed so that inoculation took place from low to high compound concentration. The Biomek 2000 delivered 10 μL of standardized inoculum into each well. Thus, the wells of the daughter plates ultimately contained 185 uL of RPMI, 5 uL of the compound solution, and 10 uL of inoculum. […]

Candida glabrata = assay: as above; type: cell-based; settings: Nakaseomyces glabratus, read-out: Minimum Inhibitory Concentrations against Yeast Isolates, Candida glabrata;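 note: two read times 24 hr and 48 hr of incubation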
Description: as §1, §2, §3, §4, §5, §6, §7, §8

Candida parapsilosis = assay: as above; type: cell-based; settings: Lodderomyces parapsilosis, read-out: Minimum Inhibitory Concentrations against Yeast Isolates, Candida parapsilosis;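 note: two read times 24 hr and 48 hr of incubation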
Description: as §1, §2, §3, §4, §5, §6, §7, §8

C. glabrata = assay: Checkerboard FIC assay in combination with fluconazole (MIC alone and in combination, FICI); type: cell-based, Candida glabrata; settings: for FICI of combination resulting in fluconazole MIC of: 2 ug/mL / FICI of combination resulting in fluconazole MIC of: 4 ug/mL / FICI of combination resulting in fluconazole MIC of: 8 ug/mL: FICI calculated using a fluconazole MIC of 16 μg/mL; for FICI of combination resulting in fluconazole MIC of: 2 ug/mL (value in parenthesis) / FICI of combination resulting in fluconazole MIC of: 4 ug/mL (value in parenthesis) / FICI of combination resulting in fluconazole MIC of: 8 ug/mL (value in parenthesis): FICI using a fluconazole MIC of 128 μg/mL; for MIC: Nakaseomyces glabratus; for Multiple of compound MIC to synergize fluconazole MIC to 2 ug/mL / Multiple of compound MIC to synergize fluconazole MIC to 4 ug/mL / Multiple of compound MIC to synergize fluconazole MIC to 8 ug/mL: concentration in combination as multiple of the compound's MIC alone; for Multiple of compound MIC to synergize fluconazole MIC to 2 ug/mL: fluconazole MIC 2 ug/mL; for Multiple of compound MIC to synergize fluconazole MIC to 4 ug/mL: fluconazole MIC 4 ug/mL; for Multiple of compound MIC to synergize fluconazole MIC to 8 ug/mL: fluconazole MIC 8 ug/mL; for Concentration of Methylgene compound to synergize fluconazole MIC to 2 ug/mL / Concentration of Methylgene compound to synergize fluconazole MIC to 4 ug/mL / Concentration of Methylgene compound to synergize fluconazole MIC to 8 ug/mL: in combination with fluconazole; for Concentration of Methylgene compound to synergize fluconazole MIC to 2 ug/mL: fluconazole MIC lowered to 2 ug/mL; for Concentration of Methylgene compound to synergize fluconazole MIC to 4 ug/mL: fluconazole MIC lowered to 4 ug/mL; for Concentration of Methylgene compound to synergize fluconazole MIC to 8 ug/mL: fluconazole MIC lowered to 8 ug/mL
Description: The ability of the compounds to synergize with azoles against C. glabrata was evaluated by the checkerboard assay, a common laboratory method used to evaluate synergy, antagonism, and indifference using fractional inhibitory concentrations (FICs) and FIC indices (FICI).
The test compounds were supplied as a powder and dissolved in dimethylsulfoxide (DMSO) on the day of assay. Stock solutions were prepared at 640 ug/mL. Fluconazole was dissolved in deionized water to a stock concentration of 320 ug/mL. All test articles were in solution under these conditions.
as §3, §4, §5
FIC values were determined using a broth microdilution method (CLSI; 1, 3). To prepare the test plates, automated liquid handlers (Multidrop 384, Labsystems, Helsinki, Finland; Biomek 2000 and Biomek FX, Beckman Coulter, Fullerton Calif.) were used to conduct serial dilutions and liquid transfers.
The wells of standard 96-well microdilution plates (Costar 3795) were filled with 150 uL of DMSO in columns 2-12. Three hundred microliters of each test compound was added to each well in Column 1 of the plates. The Biomek 2000 was used to make eleven 2-fold serial dilutions in each of these “test compound mother” plates. The wells of the “fluconazole mother plates” were filled with 150 uL of sterile water in rows B-H. Row A of these plates was filled with 300 uL of the fluconazole stock solution. Serial 2-fold dilutions were then prepared from top to bottom by hand, using a multichannel pipette in rows B-G. The “daughter plates” were loaded with 180 uL of RPMI using the Multidrop 384. The Biomek FX was used to transfer 5 uL of compound solution from each well of a fluconazole mother plate to the corresponding well in all of the daughter plates in a single step. Then the Biomek FX was used to transfer 5 uL of compound solution from each well of a test compound mother plate to the corresponding well of the corresponding test compound daughter plate (already containing fluconazole at the appropriate concentrations) in a single step. Row H and Column 12 each contained serial dilutions of the test agent and fluconazole alone, respectively, for determination of the MIC.
Standardized inoculum of each organism was prepared per CLSI methods (CLSI; 1, 3). For yeast isolates, colonies were picked from the primary plate and a suspension was prepared in 0.85% saline to equal a 0.5 McFarland turbidity standard. For the fungal isolate, 1 mL of 0.85% saline was dispensed onto a potato dextrose agar slant onto which the isolate had been inoculated 7-10 days previously. Using a swab, a suspension of the fungus was made. After a short time to allow the heavy particles to settle out, a small quantity of the supernatant was dispensed into 0.85% saline and the suspension was adjusted to equal a 0.5 McFarland turbidity standard. Both yeast and fungal isolates were diluted 1:100 in RPMI and then transferred to compartments of sterile reservoirs divided by length (Beckman Coulter). The Biomek 2000 was used to inoculate the plates. […]

[1] = 24 hr reading (first value of cell 24 hr/48 hr)
[2] = 48 hr reading (second value of cell 24 hr/48 hr)
[3] = MIC of the example compound alone against C. glabrata in the checkerboard assay, approximately 48 hr, read-out: Methylgene MIC
[4] = test compound alone, C. glabrata, approx. 48 hr at 35° C., read-out: Compound MIC

| SMILES | MIC (Candida albicans; [1]) [µg/mL] | MIC (Candida albicans; [2]) [µg/mL] | MIC (Candida glabrata; [1]) [µg/mL] | MIC (Candida glabrata; [2]) [µg/mL] | MIC (Candida parapsilosis; [1]) [µg/mL] | MIC (Candida parapsilosis; [2]) [µg/mL] | FICI of combination resulting in fluconazole MIC of: 2 ug/mL (C. glabrata; C. glabrata) | FICI of combination resulting in fluconazole MIC of: 4 ug/mL (C. glabrata; C. glabrata) | FICI of combination resulting in fluconazole MIC of: 8 ug/mL (C. glabrata; C. glabrata) | FICI of combination resulting in fluconazole MIC of: 2 ug/mL (value in parenthesis) (C. glabrata; C. glabrata) | FICI of combination resulting in fluconazole MIC of: 4 ug/mL (value in parenthesis) (C. glabrata; C. glabrata) | FICI of combination resulting in fluconazole MIC of: 8 ug/mL (value in parenthesis) (C. glabrata; C. glabrata) | MIC (C. glabrata; [3]) [µg/mL] | MIC (C. glabrata; [4]) [µg/mL] | Multiple of compound MIC to synergize fluconazole MIC to 2 ug/mL (C. glabrata) | Multiple of compound MIC to synergize fluconazole MIC to 4 ug/mL (C. glabrata) | Multiple of compound MIC to synergize fluconazole MIC to 8 ug/mL (C. glabrata) | Concentration of Methylgene compound to synergize fluconazole MIC to 2 ug/mL (C. glabrata; C. glabrata) [µg/mL] | Concentration of Methylgene compound to synergize fluconazole MIC to 4 ug/mL (C. glabrata; C. glabrata) [µg/mL] | Concentration of Methylgene compound to synergize fluconazole MIC to 8 ug/mL (C. glabrata; C. glabrata) [µg/mL] |
| --- | --- | --- | --- | --- | --- | --- | --- | --- | --- | --- | --- | --- | --- | --- | --- | --- | --- | --- | --- | --- |
| O=C(Cc1ccc(CCCC(F)c2ccccc2)cc1)NO (stereo not shown) [Example 26, 2-(4-(4-fluoro-4-phenylbutyl)phenyl)-N-hydroxyacetamide] | 4 (≈ 13.3 µM) | 8 (≈ 26.5 µM) | 2 (≈ 6.64 µM) | 8 (≈ 26.5 µM) | 4 (≈ 13.3 µM) | 8 (≈ 26.5 µM) | 0.313 | 0.250 | 0.313 | 0.266 | 0.156 | 0.125 | 8 | 8 | (¼x) | (⅛x) | ( 1/16x) | 2 | 1 | 0.5 |
| COc1ccc(CCCCc2ccc(CC(=O)NO)cc2)cc1 [Example 9, N-hydroxy-2-(4-(4-(4-methoxyphenyl)butyl)phenyl)acetamide] | 1 (≈ 3.19 µM) | 1 (≈ 3.19 µM) | 0.5 (≈ 1.6 µM) | > 4 | 1 (≈ 3.19 µM) | 1 (≈ 3.19 µM) | 0.625 | 0.490 | 0.620 | 0.516 | 0.271 | 0.183 | 0.5 | 0.5 | (½x) | (¼x) | (⅛x) | 0.25 | 0.12 | 0.06 |

Reference: patent publication US20140081017A1, “Histone Deacetylase Inhibitors for Enhancing Activity of Antifungal Agents” (METHYLGENE INC., priority 2012, published 2014)
